Assay results from publication PMC3428502 (Brain research, 2012).
“Also recorded” adds a separate entry of the source.

Legend:
[1] = biological target: T1, tyrosine hydroxylase (TH) (Rattus norvegicus, UniProt P04177); experiment: TH activity in whole dopaminergic PC6-3 cells; type: cell-based; conditions: for TH inhibition in PC6-3 cells: 2 h; for inhibition at 20 µM: read-out: TH inhibition in PC6-3 cells
PC6-3 cells [2] = experiment: MTT assay of mitochondrial function; type: cell-based; conditions: for change of mitochondrial function (MTT), in words: 5, 10, 25, 50 μM; for mitochondrial dysfunction: 50 μM
BSA [3] = biological target: T2, BSA (Bos taurus, UniProt P02769); experiment: Relative protein reactivity with BSA; conditions: 100 μM, BSA 1 mg/mL, 4 h, 37°C, compared to DOPAL
PC6-3 cells [4] = experiment: Intracellular concentration in PC6-3 cells by HPLC; type: in vitro ADME, rat
BSA [5] = biological target: T2, BSA; conditions: compared to DOPAL; ref Rees et al., 2009; cited from earlier work
PC6-3 cells [6] = experiment: Flow cytometry with DHE for superoxide anion; type: cell-based, rat; conditions: 10 μM, 1 h incubation, vs control cells
PC6-3 cells [7] = experiment: Flow cytometry with DCF-DA for hydrogen peroxide; type: cell-based, rat; conditions: 5 and 10 μM, 1 h, vs control cells
[8] = biological target: T1, tyrosine hydroxylase (TH); conditions: 1.0 μM; modified from previously published results; ref Mexas et al., 2011; cited from earlier work
[9] = biological target: T1, tyrosine hydroxylase (TH); experiment: TH activity in PC6-3 cell lysate; type: biochemical; conditions: read-out: inhibition of L-DOPA production in cell lysate
[10] = 20 μM placed exogenously on PC6-3 cells

T2 sequence (P02769 25-607): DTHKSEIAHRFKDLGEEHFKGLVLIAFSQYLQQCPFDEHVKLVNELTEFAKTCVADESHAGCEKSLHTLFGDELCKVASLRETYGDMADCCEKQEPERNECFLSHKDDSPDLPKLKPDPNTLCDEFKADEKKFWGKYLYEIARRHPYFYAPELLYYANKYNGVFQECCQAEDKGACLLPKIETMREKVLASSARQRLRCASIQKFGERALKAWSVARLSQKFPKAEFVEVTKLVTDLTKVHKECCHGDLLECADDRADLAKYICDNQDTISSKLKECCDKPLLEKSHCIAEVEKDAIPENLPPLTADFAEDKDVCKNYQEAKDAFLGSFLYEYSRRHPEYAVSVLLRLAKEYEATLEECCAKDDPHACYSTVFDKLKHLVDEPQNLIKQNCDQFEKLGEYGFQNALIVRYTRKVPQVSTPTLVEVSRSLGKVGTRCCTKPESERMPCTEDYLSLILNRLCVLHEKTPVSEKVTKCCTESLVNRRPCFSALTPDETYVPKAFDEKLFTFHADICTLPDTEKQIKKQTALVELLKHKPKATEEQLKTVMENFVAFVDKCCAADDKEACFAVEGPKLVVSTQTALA
T1 sequence (P04177 whole entry): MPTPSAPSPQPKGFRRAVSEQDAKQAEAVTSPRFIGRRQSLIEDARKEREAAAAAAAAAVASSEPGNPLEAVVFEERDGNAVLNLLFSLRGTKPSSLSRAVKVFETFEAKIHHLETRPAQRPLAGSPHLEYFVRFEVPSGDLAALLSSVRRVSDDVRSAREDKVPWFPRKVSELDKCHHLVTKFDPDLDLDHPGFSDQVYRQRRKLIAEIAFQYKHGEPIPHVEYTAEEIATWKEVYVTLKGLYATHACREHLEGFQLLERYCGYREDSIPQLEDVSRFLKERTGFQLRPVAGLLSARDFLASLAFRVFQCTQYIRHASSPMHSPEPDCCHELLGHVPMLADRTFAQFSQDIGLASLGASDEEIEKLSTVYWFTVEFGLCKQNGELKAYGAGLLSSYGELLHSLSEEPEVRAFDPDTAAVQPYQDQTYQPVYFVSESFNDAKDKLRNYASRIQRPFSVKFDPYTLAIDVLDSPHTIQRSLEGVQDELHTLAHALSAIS

Structure (SMILES)	change of mitochondrial function (MTT), in words (PC6-3 cells [2]; 2 h, vs control cells)	inhibition at 20 µM [1] [%]	intracellular concentration (PC6-3 cells [4]; [10])	times less protein reactivity than DOPAL (BSA [5]) [times]	mitochondrial dysfunction (PC6-3 cells [2]; 2 h, vs control cells)	inhibition at 20 µM [9] [%]	also measured
N#CCc1ccc(O)c(O)c1 [DHPAN, 3,4-Dihydroxyphenylacetonitrile]	no significant loss of mitochondrial viability; also recorded: no changes to mitochondrial function; also recorded: no significant toxicity						TH inhibition in PC6-3 cells ([1]; 20 μM final concentration): no significant TH inhibition; Relative protein reactivity (NBT staining of BSA) (BSA [3]): no significant staining by NBT
COc1ccc(CC=O)cc1OC [DMPAL, 3,4-Dimethoxyphenylacetaldehyde]	no significant loss of mitochondrial viability; also recorded: no changes to mitochondrial function; also recorded: no significant toxicity	~40	~ 9 μM	5			
O=CCc1ccc(O)c(O)c1 [DOPAL, 3,4-dihydroxyphenylacetaldehyde, reference compound]							TH inhibition in PC6-3 cells ([1]; 5 μM placed exogenously, intracellular 4–5 μM): ~ 60%; decrease of DA concentration in PC6-3 cells ([1]; DOPAL-treated cells vs control cells, data not shown): ~ 40%; superoxide anion production (DHE) (PC6-3 cells [6]): significantly different from control cells; hydrogen peroxide production (DCF-DA) (PC6-3 cells [7]): significantly less hydrogen peroxide than controls cells; intracellular concentration (PC6-3 cells [4]; rat, 5 μM, pH 7.4): 4 to 5 µM; TH inhibition in cell lysate [8]: ~95%
O=CCC=O [MDA, Malondialdehyde, reference compound]							effect on TH activity ([1]; 5 μM, used to inhibit ALDH and AR, data not shown): does not inhibit or alter TH activity
COc1cc(CC=O)ccc1O [MOPAL, 3-methoxy-4-hydroxyphenylacetaldehyde]	some concentration-dependent dysfunction	~50		5	~ 25%	~50	intracellular concentration (PC6-3 cells [4]; rat, 20 μM, pH 7.4): 9 to 12 µM
O=CCc1ccccc1 [PAL, phenylacetaldehyde]	some concentration-dependent dysfunction	~50	9 to 12 µM	10	~ 25%	~50	loss of mitochondrial viability (PC6-3 cells [2]; 10 μM, 2 h, vs control cells): ~ 15%; loss of mitochondrial viability (PC6-3 cells [2]; 25 μM, vs controls): ~ 15%
